Experiments:
Assay in all cases: relative viability (nuclei count vs DMSO), 5 days (fraction); higher = more cells survive
[1] = compound: CN[C@@H]1C[C@H]2O[C@@](C)([C@@H]1OC)n1c3ccccc3c3c4c(c5c6ccccc6n2c5c31)C(=O)NC4 [Staurosporine] + Cc1cc(Nc2cc(N3CCN(C)CC3)nc(Sc3ccc(NC(=O)C4CC4)cc3)n2)n[nH]1 [Tozasertib] (partner 0.1 µM)
Summary of the method: (§1)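 Each reported value is a median over duplicate plates. It expresses relative viability: treated-well nuclei count divided by vehicle-well nuclei count. Lung cancer cell lines in 1536-well plates were dosed by pin tool a day after seeding, alone with one drug or with a fixed anchor-drug dose plus five library-drug doses (not always all listed) in √10 steps, and nuclei were counted after 5 days.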

Sulindac + Alpelisib = compound: CC1=C(CC(=O)O)c2cc(F)ccc2/C1=C\c1ccc([S+](C)[O-])cc1 [Sulindac] + Cc1nc(NC(=O)N2CCC[C@H]2C(N)=O)sc1-c1ccnc(C(C)(C)C(F)(F)F)c1 [Alpelisib] (partner 2 µM)
Summary of the method: as §1

5-Fluorouracil + AZD7762 = compound: O=c1[nH]cc(F)c(=O)[nH]1 [5-Fluorouracil] + NC(=O)Nc1cc(-c2cccc(F)c2)sc1C(=O)N[C@H]1CCCNC1 [AZD7762] (partner 0.2 µM)
Summary of the method: as §1

[2] = compound: O=c1[nH]cc(F)c(=O)[nH]1 [5-Fluorouracil] + CC1(C)CCC(c2ccc(Cl)cc2)=C(CN2CCN(c3ccc(C(=O)NS(=O)(=O)c4ccc(N[C@H](CCN5CCOCC5)CSc5ccccc5)c(S(=O)(=O)C(F)(F)F)c4)cc3)CC2)C1 [Navitoclax] (partner 0.5 µM)
Summary of the method: as §1

| Cell Line | relative viability ([1]; first compound 0.005 µM) | relative viability ([1]; first compound 0.01581 µM) | relative viability ([1]; first compound 0.05 µM) | relative viability ([1]; first compound 0.1581 µM) | relative viability ([1]; first compound 0.5 µM) | relative viability (Sulindac + Alpelisib; first compound 0.08 µM) | relative viability (Sulindac + Alpelisib; first compound 0.253 µM) | relative viability (Sulindac + Alpelisib; first compound 2.53 µM) | relative viability (Sulindac + Alpelisib; first compound 8 µM) | relative viability (5-Fluorouracil + AZD7762; first compound 0.02 µM) | relative viability (5-Fluorouracil + AZD7762; first compound 0.2 µM) | relative viability (5-Fluorouracil + AZD7762; first compound 0.6325 µM) | relative viability (5-Fluorouracil + AZD7762; first compound 2 µM) | relative viability ([2]; first compound 0.02 µM) | relative viability ([2]; first compound 0.2 µM) | relative viability ([2]; first compound 0.6325 µM) | relative viability ([2]; first compound 2 µM) | relative viability (Sulindac + Alpelisib; first compound 0.8 µM) |
| --- | --- | --- | --- | --- | --- | --- | --- | --- | --- | --- | --- | --- | --- | --- | --- | --- | --- | --- |
| PC-14 | 0.514 | 0.218 | 0.0637 | 0.0512 | 0.0343 | 0.986 | 1.16 | 1.13 | 1 | 0.361 | 0.431 | 0.389 | 0.278 | 1.13 | 1.05 | 0.791 | 0.499 | – |
| HARA | 0.102 | – | 0.0638 | 0.0719 | 0.0716 | 1.07 | 0.952 | 0.918 | 0.785 | 0.411 | 0.32 | 0.4 | 0.211 | 1.12 | 1.15 | 1.11 | 1.15 | – |
| NCI-H23 | 0.324 | – | 0.198 | 0.157 | 0.196 | 0.763 | 0.78 | 0.658 | 0.859 | 0.142 | 0.208 | 0.163 | 0.172 | 0.807 | 0.845 | 0.653 | 0.338 | 0.636 |
| LCLC-97TM1 | 0.277 | 0.139 | 0.181 | 0.199 | 0.221 | 0.272 | 0.278 | – | 0.236 | 0.16 | 0.276 | 0.22 | 0.132 | 0.463 | 0.525 | 0.222 | 0.212 | 0.238 |
| LC-2-ad | 0.435 | 0.239 | 0.253 | 0.219 | 0.161 | 0.886 | 0.913 | 0.917 | 0.974 | 0.922 | 0.536 | 0.331 | 0.253 | 0.445 | 0.441 | 0.296 | 0.186 | 0.86 |
| NCI-H1666 | 0.544 | 0.44 | 0.402 | 0.355 | 0.257 | – | 1.09 | 0.866 | 0.99 | 0.708 | 0.389 | 0.462 | 0.426 | 0.878 | 0.406 | 0.327 | 0.311 | 0.808 |
| EKVX | 0.346 | 0.213 | 0.17 | 0.165 | 0.134 | 0.819 | 0.824 | 0.997 | 1.04 | 0.322 | 0.157 | 0.145 | 0.157 | 0.847 | 0.283 | 0.142 | 0.124 | 0.721 |
| SW 1573 | 0.153 | 0.186 | 0.119 | 0.0873 | 0.069 | – | 0.706 | 0.793 | 0.934 | – | – | – | – | 1.02 | 1.13 | 0.782 | 0.501 | – |
| HCC-827 | 0.442 | 0.313 | 0.358 | 0.329 | 0.263 | 0.985 | 0.979 | 0.943 | 1.11 | 0.164 | 0.178 | 0.166 | 0.147 | 0.969 | 1 | 0.592 | 0.382 | 0.839 |

Source: the supplement of paper PMC10307832
